According to ChEMBL document CHEMBL4251744, “Identification of Lycopodium Alkaloids Produced by an Ultraviolet-Irradiated Strain of Paraboeremia, an Endophytic Fungus from Lycopodium serratum var. longipetiolatum” (J Nat Prod, 2018):

Columns and labels:
Acetylcholinesterase [1] = biological target: T1, Acetylcholinesterase (Homo sapiens, UniProt P22303); assay: Inhibition of AChE (unknown origin) using acetylthiocholine iodide as substrate by Ellman's method
Acetylcholinesterase [2] = biological target: T1, Acetylcholinesterase; assay: Inhibition of AChE (unknown origin)

T1 sequence (P22303 whole entry): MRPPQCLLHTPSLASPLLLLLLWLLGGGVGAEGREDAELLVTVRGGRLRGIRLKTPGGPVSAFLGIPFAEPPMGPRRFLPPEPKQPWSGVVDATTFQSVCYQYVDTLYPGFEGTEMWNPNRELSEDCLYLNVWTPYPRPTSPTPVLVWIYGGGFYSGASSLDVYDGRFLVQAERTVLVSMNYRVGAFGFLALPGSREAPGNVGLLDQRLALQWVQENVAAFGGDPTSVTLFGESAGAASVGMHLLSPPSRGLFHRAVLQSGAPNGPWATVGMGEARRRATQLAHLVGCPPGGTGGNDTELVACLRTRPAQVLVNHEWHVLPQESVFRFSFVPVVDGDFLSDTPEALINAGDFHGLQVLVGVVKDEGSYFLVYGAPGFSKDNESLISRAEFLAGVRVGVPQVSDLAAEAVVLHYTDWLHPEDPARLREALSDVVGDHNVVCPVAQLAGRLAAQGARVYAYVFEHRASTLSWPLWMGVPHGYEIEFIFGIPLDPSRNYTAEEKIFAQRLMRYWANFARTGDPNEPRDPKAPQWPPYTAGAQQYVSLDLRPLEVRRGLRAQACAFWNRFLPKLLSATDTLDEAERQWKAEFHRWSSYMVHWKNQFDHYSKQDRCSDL

Row | SMILES | IC50 (Acetylcholinesterase [1]) | IC50 (Acetylcholinesterase [2])
1 | C[C@@H]1C[C@H]2CC(=O)[C@H]3CCC[N+]4([O-])CCC[C@@H]2[C@]34C1 (stereo partly drawn) | > 100 µM | –
2 | C[C@@H]1C[C@H]2CC(=O)[C@H]3CCCN4CCC[C@@H]2[C@]34C1 | > 100 µM | –
3 | C[C@@H]1C[C@H]2CC(=O)[C@H]3CCC[N+]4([O-])CCC[C@]2(O)[C@]34C1 (stereo partly drawn) | – | 0.59 µM
